O=C1OC(=O)[C@H]2[C@@H]1[C@@H]1C=C[C@H]2O1
solubility (mole fraction)
Conditions | 278.15 K | 283.15 K | 288.15 K | 293.15 K | 298.15 K | 303.15 K | 308.15 K | 313.15 K | 318.15 K | 323.15 K
in 1,4-dioxane | – | – | 0.0221 | 0.0275 | 0.0342 | 0.0421 | 0.052 | 0.0682 | 0.0869 | 0.131
in acetone | 0.0386 | 0.0439 | 0.0477 | 0.0551 | 0.0617 | 0.0703 | 0.0814 | 0.0929 | 0.104 | 0.126
in ethanol | 0.000635 | 0.00076 | 0.00091 | 0.00102 | 0.00124 | 0.00145 | 0.00169 | 0.00202 | 0.00238 | 0.00292
in ethyl acetate | 0.0152 | 0.0165 | 0.02 | 0.0223 | 0.0274 | 0.0309 | 0.0364 | 0.0414 | 0.0475 | 0.0559
in methyl acetate | 0.0225 | 0.028 | 0.0297 | 0.0357 | 0.0416 | 0.0483 | 0.0587 | 0.068 | 0.0805 | 0.0963

From BigSolDB 2.1
